Results published in US5166357A (priority 1988, dated 1992).
Where two headings read alike, the source gives them in different places.

Assays:
muscarinic receptors [1] = experiment: Radio ligand binding: displacement of muscarinic agonist 3H-Oxotremorine-M (3H-OXO-M) from rat cerebral cortex membranes; set-up: species or system Hooded Lister rats; settings: 2nM 3H-OXO-M, 2mM magnesium chloride, tris pH 7.7, 37° C., 30 min
muscarinic receptors [2] = format: binding, Hooded Lister rats; settings: 0.27nM 3H-QNB, rat cerebral cortex, tris pH 7.7, 37° C., 30 min

Row | Compound | IC50 (muscarinic receptors [1]) [nM] | IC50 (muscarinic receptors [2]) [nM]
1 | Nc1ncc(C2CN3CCC2CC3)o1 (racemic) [Example E2, (±) 3-(2-Amino-1,3-oxazol-5-yl)-1-azabicyclo[2.2.2]octane] | 440 | 17000
2 | COCc1ncc(C23CCN(CC2)C3)o1 [Example E17, 4-(2-Methoxymethyl-1,3-oxazol-5-yl)-1-azabicyclo[2.2.1]-heptane] | 1050 | 60000
3 | Nc1nc(C23CCCN(CC2)C3)co1 (racemic) [Example E1, (±) 5-(2-Amino-1,3-oxazol-4-yl)-1-azabicyclo[3.2.1]octane] | 250 | 42000
4 | Nc1ncc(C23CCN(CC2)C3)o1 [Example E5] | 18 | 11000
5 | OCc1ncc(C23CCCN(CC2)C3)o1 (racemic) [Example E10, (±)5-(2-Hydroxymethyl-1,3-oxazol-5-yl)-1-azabicyclo [3.2.1]octane] | 206 | 7000
6 | COC(=O)c1ncc(C23CCCN(CC2)C3)o1 (racemic) [Example E9, (±)5-(2-Methoxycarbonyl-1,3-oxazol-5-yl)-1-azabicyclo [3.2.1]octane] | 2000 | 30500
7 | Nc1nc(C23CCCN(CC2)C3)cs1 (racemic) [Example E4, (±5-(2-Amino-1,3-thiazol-4-yl)-1-azabicyclo[3.2.1]octane] | 280 | 5600
8 | Nc1ncc(C23CCCN(CC2)C3)o1 (racemic) [Example E3, (±) 5-(2-Amino-1,3-oxazol-5-yl)-1-azabicyclo[3.2.1]-octane] | 4 | 3500
9 | Nc1ncc(C2CN3CCC2C3)o1 (racemic) [Example E6, (±) exo and endo 3-(2-Amino-1,3-oxazol-5-yl)-1-azabicyclo[[2.2.1]heptane] | 200 | 10300
10 | FCc1ncc(C23CCCN(CC2)C3)o1 (racemic) [Example E12, (±)5-(2-Fluoromethyl-1,3-oxazol-5-yl)-1-azabicyclo [3.2.1]octane] | 5 | 440
11 | N#Cc1ncc(C23CCCN(CC2)C3)o1 (racemic) [Example E13, (±)5-(2-Cyano-1,3-oxazol-5-yl)-1-azabicyclo[3.2.1]octane] | 380 | 2800
12 | COCc1ncc(C23CCCN(CC2)C3)o1 (racemic) [Example E11, (±)5-(2-Methoxymethyl-1,3-oxazol-5-yl)-1-azabicyclo [3.2.1]octane] | 220 | 2600
13 | Nc1ncc([C@H]2C[C@@H]3CCN(C3)C2)o1 (relative stereo) [Example E16, (±) exo 3-(2-Amino-1,3-oxazol-5-yl)-1-azabicyclo[3.2.1]octane] | 560 | 42000
